From the NIST ThermoML archive (doi:10.1021/acs.jced.7b00002)

Experiment: xn = mol fraction of the nth substance listed
Settings: 97.6 kPa, Liquid; for viscosity: Capillary tube (Ostwald / Ubbelohde) method; for mass density: Vibrating tube method

CCCCCCCC[n+]1ccn(C)c1.[Cl-] [1-methyl-3-octylimidazolium chloride] + c1ccncc1
Settings | mass density [kg/m3] | viscosity [mPa·s]
303.15 K, x1 = 0.128 | 988.9 | 3.46
303.15 K, x1 = 0.255 | 998.25 | 12.71
303.15 K, x1 = 0.339 | 1000.33 | 29.41
303.15 K, x1 = 0.445 | 1002.78 | 84.05
303.15 K, x1 = 0.578 | 1004.43 | 290.77
303.15 K, x1 = 0.755 | 1005.83 | 863.91
303.15 K, x1 = 0.865 | 1005.51 | 2828.1
303.15 K, x1 = 1 | 1006.2 | 7339.7
308.15 K, x1 = 0.128 | 984.71 | 3.11
308.15 K, x1 = 0.255 | 994.55 | 10.87
308.15 K, x1 = 0.339 | 996.84 | 24.13
308.15 K, x1 = 0.445 | 999.45 | 65.58
308.15 K, x1 = 0.578 | 1001.29 | 215.57
308.15 K, x1 = 0.755 | 1002.79 | 599.38
308.15 K, x1 = 0.865 | 1002.58 | 1823.5
308.15 K, x1 = 1 | 1003.33 | 4272.9
313.15 K, x1 = 0.128 | 980.51 | 2.81
313.15 K, x1 = 0.255 | 990.84 | 9.39
313.15 K, x1 = 0.339 | 993.34 | 20.12
313.15 K, x1 = 0.445 | 996.14 | 51.96
313.15 K, x1 = 0.578 | 998.15 | 161.31
313.15 K, x1 = 0.755 | 999.79 | 426
313.15 K, x1 = 0.865 | 999.66 | 1210.7
313.15 K, x1 = 1 | 1000.48 | 2766.9
318.15 K, x1 = 0.128 | 976.31 | 2.56
318.15 K, x1 = 0.255 | 987.14 | 8.17
318.15 K, x1 = 0.339 | 989.85 | 16.97
318.15 K, x1 = 0.445 | 992.85 | 42.02
318.15 K, x1 = 0.578 | 995.01 | 123.18
318.15 K, x1 = 0.755 | 996.82 | 309.61
318.15 K, x1 = 0.865 | 996.75 | 829.67
318.15 K, x1 = 1 | 997.64 | 1788.6
323.15 K, x1 = 0.128 | 972.1 | 2.34
323.15 K, x1 = 0.255 | 983.45 | 7.17
323.15 K, x1 = 0.339 | 986.38 | 14.49
323.15 K, x1 = 0.445 | 989.57 | 34.4
323.15 K, x1 = 0.578 | 991.88 | 96.06
323.15 K, x1 = 0.755 | 993.86 | 230.68
323.15 K, x1 = 0.865 | 993.8 | 583.82
323.15 K, x1 = 1 | 994.82 | 1198.7
328.15 K, x1 = 0.128 | 967.86 | 2.15
328.15 K, x1 = 0.255 | 979.75 | 6.34
328.15 K, x1 = 0.339 | 982.9 | 12.56
328.15 K, x1 = 0.445 | 986.28 | 28.53
328.15 K, x1 = 0.578 | 988.75 | 75.98
328.15 K, x1 = 0.755 | 990.9 | 174.4
328.15 K, x1 = 0.865 | 990.92 | 419.77
328.15 K, x1 = 1 | 992 | 828.3
333.15 K, x1 = 0.128 | 963.58 | 1.98
333.15 K, x1 = 0.255 | 976.06 | 5.65
333.15 K, x1 = 0.339 | 979.42 | 10.81
333.15 K, x1 = 0.445 | 983 | 23.98
333.15 K, x1 = 0.578 | 985.64 | 61.06
333.15 K, x1 = 0.755 | 987.95 | 134.84
333.15 K, x1 = 0.865 | 988.06 | 309.69
333.15 K, x1 = 1 | 989.17 | 588.69
338.15 K, x1 = 0.128 | 959.29 | 1.83
338.15 K, x1 = 0.255 | 972.37 | 5.06
338.15 K, x1 = 0.339 | 975.93 | 9.51
338.15 K, x1 = 0.445 | 979.67 | 20.37
338.15 K, x1 = 0.578 | 982.53 | 49.81
338.15 K, x1 = 0.755 | 984.99 | –
338.15 K, x1 = 0.865 | 985.22 | 233.02
338.15 K, x1 = 1 | 986.38 | 426.28
343.15 K, x1 = 0.128 | 955.03 | 1.7
343.15 K, x1 = 0.255 | 968.68 | 4.56
343.15 K, x1 = 0.339 | 972.4 | 8.37
343.15 K, x1 = 0.445 | 976.42 | 17.42
343.15 K, x1 = 0.578 | 979.44 | 41.06
343.15 K, x1 = 0.755 | 982.04 | 84.08
343.15 K, x1 = 0.865 | 982.37 | 177.92
343.15 K, x1 = 1 | 983.63 | 316.66
348.15 K, x1 = 0.128 | 950.66 | 1.58
348.15 K, x1 = 0.255 | 965 | 4.13
348.15 K, x1 = 0.339 | 968.9 | 7.4
348.15 K, x1 = 0.445 | 973.05 | 15.01
348.15 K, x1 = 0.578 | 976.36 | 34.18
348.15 K, x1 = 0.755 | 979.11 | 68.04
348.15 K, x1 = 0.865 | 979.56 | 138.26
348.15 K, x1 = 1 | 980.88 | 237.14
353.15 K, x1 = 0.128 | 946.27 | 1.48
353.15 K, x1 = 0.255 | 961.31 | 3.76
353.15 K, x1 = 0.339 | 965.27 | 6.63
353.15 K, x1 = 0.445 | 969.48 | 13.03
353.15 K, x1 = 0.578 | 973.29 | 28.74
353.15 K, x1 = 0.755 | 976.18 | 55.2
353.15 K, x1 = 0.865 | 976.69 | 108.95
353.15 K, x1 = 1 | 978.13 | 181.41

CCCCCCCC[n+]1ccn(C)c1.[Cl-] [1-methyl-3-octylimidazolium chloride] + CN(C)C=O
Settings | mass density [kg/m3] | viscosity [mPa·s]
303.15 K, x1 = 0.119 | 965.57 | 2.56
303.15 K, x1 = 0.241 | 979.1 | 8.9
303.15 K, x1 = 0.321 | 985.99 | 18.99
303.15 K, x1 = 0.424 | 992 | 49.08
303.15 K, x1 = 0.557 | 996.35 | 160.48
303.15 K, x1 = 0.739 | 1002.01 | 766.79
303.15 K, x1 = 0.858 | 1004.31 | 1892.8
303.15 K, x1 = 1 | 1006.2 | 7339.7
308.15 K, x1 = 0.119 | 961.27 | 2.32
308.15 K, x1 = 0.241 | 975.4 | 7.69
308.15 K, x1 = 0.321 | 982.47 | 15.91
308.15 K, x1 = 0.424 | 988.63 | 39.48
308.15 K, x1 = 0.557 | 993.19 | 122.67
308.15 K, x1 = 0.739 | 998.95 | 536.62
308.15 K, x1 = 0.858 | 1001.36 | 1258
308.15 K, x1 = 1 | 1003.33 | 4272.9
313.15 K, x1 = 0.119 | 957.31 | 2.13
313.15 K, x1 = 0.241 | 971.7 | 6.75
313.15 K, x1 = 0.321 | 979.05 | 13.51
313.15 K, x1 = 0.424 | 985.26 | 32.2
313.15 K, x1 = 0.557 | 989.93 | 95.06
313.15 K, x1 = 0.739 | 995.95 | 381.17
313.15 K, x1 = 0.858 | 998.42 | 856.69
313.15 K, x1 = 1 | 1000.48 | 2766.9
318.15 K, x1 = 0.119 | 953.45 | 1.95
318.15 K, x1 = 0.241 | 967.99 | 5.96
318.15 K, x1 = 0.321 | 975.72 | 11.56
318.15 K, x1 = 0.424 | 981.9 | 26.5
318.15 K, x1 = 0.557 | 986.82 | 74.18
318.15 K, x1 = 0.739 | 992.97 | 277.21
318.15 K, x1 = 0.858 | 995.47 | 596.05
318.15 K, x1 = 1 | 997.64 | 1788.6
323.15 K, x1 = 0.119 | 949.36 | 1.81
323.15 K, x1 = 0.241 | 964.31 | 5.29
323.15 K, x1 = 0.321 | 972.37 | 10
323.15 K, x1 = 0.424 | 978.56 | 22.11
323.15 K, x1 = 0.557 | 983.92 | 59.06
323.15 K, x1 = 0.739 | 990 | 206.44
323.15 K, x1 = 0.858 | 992.57 | 426.48
323.15 K, x1 = 1 | 994.82 | 1198.7
328.15 K, x1 = 0.119 | 945.25 | 1.67
328.15 K, x1 = 0.241 | 960.61 | 4.75
328.15 K, x1 = 0.321 | 969.03 | 8.72
328.15 K, x1 = 0.424 | 975.22 | 18.67
328.15 K, x1 = 0.557 | 980.8 | 47.65
328.15 K, x1 = 0.739 | 987.03 | 156.59
328.15 K, x1 = 0.858 | 989.7 | 312.38
328.15 K, x1 = 1 | 992 | 828.3
333.15 K, x1 = 0.119 | 941.11 | 1.56
333.15 K, x1 = 0.241 | 956.95 | 4.25
333.15 K, x1 = 0.321 | 965.62 | 7.67
333.15 K, x1 = 0.424 | 971.88 | 15.92
333.15 K, x1 = 0.557 | 977.65 | 38.97
333.15 K, x1 = 0.739 | 984.05 | 120.9
333.15 K, x1 = 0.858 | 986.83 | 233.56
333.15 K, x1 = 1 | 989.17 | 588.69
338.15 K, x1 = 0.119 | 936.97 | 1.45
338.15 K, x1 = 0.241 | 953.32 | 3.85
338.15 K, x1 = 0.321 | 962.16 | 6.79
338.15 K, x1 = 0.424 | 968.56 | 13.71
338.15 K, x1 = 0.557 | 974.48 | 32.38
338.15 K, x1 = 0.739 | 981.09 | 94.93
338.15 K, x1 = 0.858 | 983.97 | 176.82
338.15 K, x1 = 1 | 986.38 | 426.28
343.15 K, x1 = 0.119 | 932.83 | 1.36
343.15 K, x1 = 0.241 | 949.69 | 3.5
343.15 K, x1 = 0.321 | 958.67 | 6.06
343.15 K, x1 = 0.424 | 965.24 | 11.91
343.15 K, x1 = 0.557 | 971.56 | 27.13
343.15 K, x1 = 0.739 | 978.13 | 75.65
343.15 K, x1 = 0.858 | 981.1 | 137.16
343.15 K, x1 = 1 | 983.63 | 316.66
348.15 K, x1 = 0.119 | 928.69 | 1.27
348.15 K, x1 = 0.241 | 946.02 | 3.2
348.15 K, x1 = 0.321 | 955.18 | 5.43
348.15 K, x1 = 0.424 | 961.92 | 10.41
348.15 K, x1 = 0.557 | 968.34 | 22.93
348.15 K, x1 = 0.739 | 975.19 | 61.29
348.15 K, x1 = 0.858 | 978.24 | 108.17
348.15 K, x1 = 1 | 980.88 | 237.14
353.15 K, x1 = 0.119 | 924.55 | 1.2
353.15 K, x1 = 0.241 | 942.33 | 2.93
353.15 K, x1 = 0.321 | 951.69 | 4.9
353.15 K, x1 = 0.424 | 958.62 | 9.16
353.15 K, x1 = 0.557 | 965.07 | 19.6
353.15 K, x1 = 0.739 | 972.25 | 50.08
353.15 K, x1 = 0.858 | 975.39 | 86.03
353.15 K, x1 = 1 | 978.13 | 181.41
